Measured values: patent US20030022821A1, “Bioactive peptides” (priority 1998, published 2003)
≈ marks a conversion by molar mass, not a printed value. Like-named read-outs stand apart in the source and are kept apart here. Ends that are not written are not given here. Peptide text beside a SMILES is read from it. * marks the point of attachment. Fmoc = O=C(OCC1c2ccccc2-c2ccccc21)*; Acm = CC(=O)NC*

Columns and labels:
[1] = system: Escherichia coli ATCC 25922; type: cell-based
In short: (§1)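 Peptides were assayed against mid-log cultures by microdilution (1% Bacto Peptone water, 2×10^6 CFU/ml). Their solution concentration was measured by HPLC before and after plating. Triplicate determinations.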

[2] = system: Staphylococcus aureus ATCC 25923; type: cell-based
In short: as §1

[3] = system: human red blood cells; assay: Hemolytic assay; type: cell-based
[4] = system: Meth A cells (murine sarcoma cell line); assay: Cytotoxicity on Meth A cells, MTT method
Description: Peptide solutions (0.1 ml) were added and the plates incubated at 37° C. for 30 minutes, 4 hours or 24 hours. The cytotoxicity was measured using the MTT method (Mosmann et al., J. Immunol. (1986) 136, 2348-2357).
Cells in the growth phase were harvested and washed in fresh medium and injected subcutaneously into the abdominal region of the mice.
The cytotoxic effect of the peptides on different murine and human tumor cells were measured using the MTT method (Mosmann et al., J. Immunol. (1986) 136, 2348-2357). MTT is a soluble tetrazolium salt yielding a yellow solution when prepared in media or salt solutions lacking phenol red. Dissolved MTT is converted to an insoluble purple formazan by cleavage of the tetrazolium ring by dehydrogenase enzymes. This water insoluble formazan can be solubilized using isopropanol or other solvents and the dissolved material is measured spectrophotometrically. The absorbance was measured as a function of concentration of converted dye.
Cells were maintained in […] medium containing 10% FBS, 1% L-glutamine and 0.1% penicillin and streptomycin. Cells to be used in the assay were grown to confluency, trypsinated and split to single cell suspension, counted and centrifuged at 1500 rpm for 10 min. […][…] of cell suspension was transferred to each well on a 96-well microtiter plate. The cells were stimulated by adding […] of various concentrations of peptides diluted with assay medium to each well. The final concentrations of peptide were for example: 5, 10, 20, 40, 60, 80, 100, and 200 mg/ml. […] As a negative control only medium was added to the cells, and as a positive control (100% killing) 1% triton X-100 was added. Following an incubation period of 4 h., 20 ml MTT dissolved in PBS at a concentration of 5 mg/ml was added to each well, and the plate was incubated further for 2 h. 130 ml of the supernatant were then removed and […] acid alcohol (0.04-0.1 N HCl in isopropanol) added to each well to dissolve the dark blue crystals. The plate was placed on a shaker for 1 h and read spectrophotometrically at 590 nm in a microtiterplate reader using the Softmaxâ program.

[5] = system: normal fibroblasts; type: cell-based
[6] = read-out: MethA IC 50, Table 7, peptide required to kill 50% of MethA cells

Compound	MIC E. coli ([1]; ATCC 25922) [µg/mL]	MIC S. aureus ([2]; ATCC 25923) [µg/mL]	% Hemolysis 10 μg/ml ([3]; red cells of human) [%]	% Hemolysis 100 μg/ml ([3]; red cells of human) [%]	IC50 [5] [µM]	Mic S. Aureus ([2]; ATCC 25923) [µM]	EC50 ([3]; red cells of human) [µM]	IC50 ([4]; 4 h) [µM]	other results
CSCC[C@H](NC(=O)[C@H](CCCNC(=N)N)NC(=O)[C@H](C)NC(=O)[C@H](CCC(N)=O)NC(=O)[C@H](Cc1c[nH]c2ccccc12)NC(=O)[C@H](CCCNC(=N)N)NC(=O)[C@H](CCCNC(=N)N)NC(=O)[C@H](CSCNC(C)=O)NC(=O)[C@H](CCCCN)NC(=O)[C@H](Cc1ccccc1)NC(=O)OCC1c2ccccc2-c2ccccc21)C(=O)N[C@@H](CCCCN)C(=O)N[C@@H](CCCCN)C(=O)N[C@@H](CC(C)C)C(=O)NCC(=O)N[C@@H](C)C(=O)O [LFB A8 FMOC] (Fmoc-FKC(Acm)RRWQARMKKLGA-OH)	60 (≈ 27.6 µM)	10 (≈ 4.6 µM)	2.87	7.79					killing of Meth A cells ([4]; 250 μg/ml at ½ hour and 4 hours): killed most of the cells
CSCC[C@H](NC(=O)[C@H](CCCNC(=N)N)NC(=O)[C@H](C)NC(=O)[C@H](CCC(N)=O)NC(=O)[C@H](Cc1c[nH]c2ccccc12)NC(=O)[C@H](CCCNC(=N)N)NC(=O)[C@H](CCCNC(=N)N)NC(=O)[C@H](CSCNC(C)=O)NC(=O)[C@H](CCCCN)NC(=O)[C@@H](N)Cc1ccccc1)C(=O)N[C@@H](CCCCN)C(=O)N[C@@H](CCCCN)C(=O)N[C@@H](CC(C)C)C(=O)NCC(=O)N[C@@H](C)C(=O)O [LFB A8] (H-FKC(Acm)RRWQARMKKLGA-OH; N-terminus assumed)	>200	>200	2.8	3.45					MethA IC50 ([4]; 4 h): 500 µg/mL
CSCC[C@H](NC(=O)[C@H](CCCNC(=N)N)NC(=O)[C@H](Cc1c[nH]c2ccccc12)NC(=O)[C@H](CCC(N)=O)NC(=O)[C@H](Cc1c(S(=O)(=O)c2c(C)c(C)c3c(c2C)CCC(C)(C)O3)[nH]c2ccccc12)NC(=O)[C@H](CCCNC(=N)N)NC(=O)[C@H](CCCNC(=N)N)NC(=O)[C@H](CSCNC(C)=O)NC(=O)[C@H](CCCCN)NC(=O)[C@@H](N)Cc1ccccc1)C(=O)N[C@@H](CCCCN)C(=O)N[C@@H](CCCCN)C(=O)N[C@@H](CC(C)C)C(=O)NCC(=O)N[C@@H](C)C(=O)O [LFB PMC6]			3.4	6					MIC E. coli ([1]; Table 11): 10 µg/mL (≈ 4.29 µM); MIC S. aureus ([2]; Table 11): 10 µg/mL (≈ 4.29 µM); EC 50 [3]: >1000 µg/mL; EC50 [3]: > 429 µM; MethA IC50 ([4]; 4 h): 148 µg/mL
CSCC[C@H](NC(=O)[C@H](CCCNC(=N)N)NC(=O)[C@H](Cc1c(S(=O)(=O)c2c(C)c(C)c3c(c2C)CCC(C)(C)O3)[nH]c2ccccc12)NC(=O)[C@H](CCC(N)=O)NC(=O)[C@H](Cc1c[nH]c2ccccc12)NC(=O)[C@H](CCCNC(=N)N)NC(=O)[C@H](CCCNC(=N)N)NC(=O)[C@H](CSCNC(C)=O)NC(=O)[C@H](CCCCN)NC(=O)[C@@H](N)Cc1ccccc1)C(=O)N[C@@H](CCCCN)C(=O)N[C@@H](CCCCN)C(=O)N[C@@H](CC(C)C)C(=O)NCC(=O)N[C@@H](C)C(=O)O [LFB PMC8]	18 (≈ 7.72 µM)	10 (≈ 4.29 µM)	3.6	9.79					MethA IC50 ([4]; 4 h): 150 µg/mL
CC(=O)NCSC[C@H](NC(=O)[C@H](CCCCN)NC(=O)[C@@H](N)Cc1ccccc1)C(=O)N[C@@H](Cc1c[nH]c2ccccc12)C(=O)N[C@@H](CCCNC(=N)N)C(=O)N[C@@H](Cc1c[nH]c2ccccc12)C(=O)N[C@@H](CCC(N)=O)C(=O)N[C@@H](Cc1c[nH]c2ccccc12)C(=O)N[C@@H](CCCNC(=N)N)C(=O)N[C@@H](Cc1c[nH]c2ccccc12)C(=O)N[C@@H](CCCCN)C(=O)N[C@@H](CCCCN)C(=O)N[C@@H](CC(C)C)C(=O)NCC(=O)N[C@@H](C)C(=O)O [LFB W4, 10, H2N-Phe-Lys-Cys-Trp-Arg-Trp-Gln-Trp-Arg-Trp-Lys-Lys-Leu-Gly-Ala-COOH] (H-FKC(Acm)WRWQWRWKKLGA-OH)	5 (≈ 2.32 µM)	10 (≈ 4.65 µM)	4.45	27.8					MIC E. coli ([1]; Table 6): 5 µg/mL (≈ 2.32 µM); MIC S. aureus ([2]; Table 6, unit assumed): 10 µg/mL (≈ 4.65 µM); Meth A IC50 ([4]; 4 h): 500 µg/mL
PAARKAFRWAWRMLKKAA-OH [LFB 14-31A2,3,6, 10, 17F7K16L14R4]					190	10	> 463	24.1	Mic E-coli ([1]; ATCC 25922): 15 µM
PAIRKAFRIAIRMLKKAA-OH					280	10	> 487	47	Mic E-coli ([1]; ATCC 25922): 2.5 µM
PAIRKAFRIAWRMLKKAA-OH [LFB 14-31A2,6, 10, 17F7I3, 9K16L14R4]					108	5	> 470	36	Mic E-coli ([1]; ATCC 25922): 5 µM
PAIRKAFRWAIRMLKKAA-OH [LFB 14-31A2,6, 10, 17F7I3, 11K16L14R4]					45	5	413	16	Mic E-coli ([1]; ATCC 25922): 2.5 µM
PAIRKAFRWAWRMLKKAA-OH [LFB 14-31A2,6, 10, 17F7I3K16L14R4]					20		323	9	Mic E-coli ([1]; Table 17): 2/4; Mic S. Aureus ([2]; Table 17): 2/4
PAKRKAFRWAWRMLKKAA-OH [LFB 14-31A2,6, 10, 17F7K3, 16L14R4]					230		> 451	230	
PAWFKAFRWAWRMLKKAA-OH [LFB 14-31 A2,6, 10, 17F7K16L14]	10	10					> 440		IC50 [4, 6]: 28.1 µM
PAWRKAFRIAIRMLKKAA-OH [LFB 14-31A2,6, 10, 17F7I9, 11K16L14R4]					26			22	
PAWRKAFRIAWRMLKKAA-OH [LFB 14-31A2,6, 10, 17F7I9K16L14R4]					26	<1		12	Mic E-coli ([1]; ATCC 25922): 5 µM
PAWRKAFRKAKRMLKKAA-OH [LFB 14-31A2,6, 10, 17F7K9, 11, 16L14R4]					> 463		> 463	> 300	
PAWRKAFRWAIRMLKKAA-OH [LFB 14-31A2,6, 10, 17F7I11K16L14R4]					15	<1		6	Mic E-coli ([1]; Table 17): 2/5
PAWRKAFRWAWRMKKLAA-OH [LFB 14-31 A2,6, 10, 17F7R4]	10	2.5					> 440		IC50 [4, 6]: 30.2 µM
PAWRKARRWAWRMKKLAA-OH [LFB 14-31 A2,6, 10, 17R4]	30	20					> 438		IC50 [4, 6]: 75.8 µM
RRWAWRMKK-OH [LFB 20-28 A4]	>100	>100	0	1.68					MethA IC50 ([4]; 4 h): 500 µg/mL
RRWQWRMKKL-OH [LFB 20-29]	60	>100	1.75	2.74					MethA IC50 ([4]; 4 h): 500 µg/mL
